PMC8199245, “Serotonin Promotes Serum Albumin Interaction with the Monomeric Amyloid β Peptide” (International Journal of Molecular Sciences, 2021)
“Also recorded” adds a separate entry of the source.

Key:
HSA [1] = tested on: HSA; design: method as in PMID 17191887; settings: read-out: equilibrium dissociation constant (KD) for the HSA–SRO complex; cited from earlier work
[2] = target: T1, HSA–monomeric Aβ42 (recombinant human Aβ42) (Homo sapiens, UniProt P02768); assay: SPR of HSA interaction with immobilized monomeric Aβ42, without/with SRO or TRP; settings: SPR 25 °C; for Kd: KD (apparent, HSA–Aβ42), KD × 10^7, i.e. value × 10^−7 M; for Kd / ka (effective, HSA–Aβ42) / kd (effective, HSA–Aβ42): HSA 5–60 µM, mean ± SD; for ka (effective, HSA–Aβ42): ka × 10^−3, i.e. value × 10^3 M^−1s^−1; for kd (effective, HSA–Aβ42): kd × 10^4, i.e. value × 10^−4 s^−1
T1 sequence (P05067 672-713): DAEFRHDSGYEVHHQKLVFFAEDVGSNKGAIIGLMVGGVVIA
T1 sequence (P02768 25-609): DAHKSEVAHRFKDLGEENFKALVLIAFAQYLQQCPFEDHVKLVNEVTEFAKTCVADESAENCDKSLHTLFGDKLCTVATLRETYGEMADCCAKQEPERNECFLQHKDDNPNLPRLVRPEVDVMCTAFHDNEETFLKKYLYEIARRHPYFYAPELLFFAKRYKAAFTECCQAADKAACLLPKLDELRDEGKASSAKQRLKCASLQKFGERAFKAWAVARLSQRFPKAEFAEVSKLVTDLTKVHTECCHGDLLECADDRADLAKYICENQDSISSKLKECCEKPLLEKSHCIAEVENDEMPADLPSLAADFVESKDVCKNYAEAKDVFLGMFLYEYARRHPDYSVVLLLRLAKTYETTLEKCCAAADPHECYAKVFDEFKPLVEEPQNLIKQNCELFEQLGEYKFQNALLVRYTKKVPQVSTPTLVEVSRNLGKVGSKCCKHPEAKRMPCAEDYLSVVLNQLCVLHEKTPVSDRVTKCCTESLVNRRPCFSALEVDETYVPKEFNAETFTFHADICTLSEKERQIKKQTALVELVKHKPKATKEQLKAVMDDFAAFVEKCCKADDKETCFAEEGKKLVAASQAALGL
Experimental: (§1) The recombinant human Aβ40 or Aβ42 sample was immobilized on the surface of the SPR sensor chip by amine coupling, followed by removal from the surface of the non-covalently bound Aβ molecules by a 2% SDS water solution [12]. […] (5–60 µM) was used as an analyte.
(§2) Aβ40/Aβ42 was immobilized on the sensor chip’s surface by amine coupling.
(§3) Recombinant human Aβ40/Aβ42 samples were pretreated for SPR measurements mainly as described in [46]. The freeze-dried Aβ sample was dissolved in neat TFA at a concentration of 0.5–1 mg/mL. The solution was sonicated for 30 s. TFA was evaporated using Eppendorf Concentrator plus. The dried Aβ sample was dissolved in DMSO at a concentration of 2 mg/mL, and stored at −20 °C.
(§4) SPR measurements were performed at 25 °C using a Bio-Rad ProteOn™ XPR36 instrument mainly as previously described. Ligand (57 μg/mL recombinant human Aβ40/Aβ42 in 10 mM sodium acetate, pH 4.5 buffer) was immobilized on a ProteOn GLH sensor chip surface (up to 7000–9000 RUs) by amine coupling. The remaining activated amine groups on the chip surface were blocked by 1 M ethanolamine solution. The non-covalently bound Aβ40/Aβ42 molecules were washed from the chip surface with 2% SDS water solution until stabilization of the signal. […] The sensor chip surface was regenerated by passage of 10 mM EDTA pH 7.9 solution containing 2% SDS. […] The double-referenced SPR sensograms were globally fitted according to the one-site binding model using Bio-Rad ProteOn Manager™ v.3.1 software.

[3] = target: T2, HSA–monomeric Aβ40 (recombinant human Aβ40) (Homo sapiens, UniProt P02768); assay: SPR of HSA interaction with immobilized monomeric Aβ40, without/with SRO or TRP; settings: SPR 25 °C; for Kd: KD (apparent, HSA–Aβ40), KD × 10^7, i.e. value × 10^−7 M; for Kd / ka (effective, HSA–Aβ40) / kd (effective, HSA–Aβ40): HSA 5–60 µM, mean ± SD; for ka (effective, HSA–Aβ40): ka × 10^−3, i.e. value × 10^3 M^−1s^−1; for kd (effective, HSA–Aβ40): kd × 10^4, i.e. value × 10^−4 s^−1
T2 sequence (P05067 672-711): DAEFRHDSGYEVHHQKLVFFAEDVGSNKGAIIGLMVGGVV
T2 sequence (P02768 25-609): as the sequence (P02768 25-609) above
Experimental: as §1, §2, §3, §4

HSA [4] = assay: Dynamic light scattering of HSA; design: species or system human; settings: 1 mM SRO, HSA 36 µM, 25 °C, pH 7.4
Experimental: The standard deviations are indicated.
The back-scattered light from a 4 mW He/Ne laser (632.8 nm) was collected at an angle of 173°. The acquisition time for a single autocorrelation function was 45 s. The resulting autocorrelation functions are averaged values from 20 measurements. The volume–size distributions were calculated using the following parameters: a refractive index of 1.330 and a viscosity value of 0.8882 cP.

Aβ42 = tested on: Aβ42; design: method as in PMID 29131485; settings: cited from earlier work
HSA [5] = assay: Glutaraldehyde crosslinking of HSA with SDS-PAGE; design: species or system human; settings: HSA 36 µM, 37 °C; for effect on quaternary structure of HSA: 1 mM ligand, glutaraldehyde crosslinking, overall statements also rest on DLS
[6] = physiological (endogenous), cited from earlier work
Experimental: (§5) The SRO concentration in plasma is 0.28–1.7 µM [40], but in the synaptic cleft it may reach 6 mM and 55 nM after SRO diffuses into the extracellular compartment.

[7] = tested on: Aβ level in interstitial brain fluid; settings: direct infusion into the hippocampus, mouse model of AD; cited from earlier work
Experimental: as §5

HSA–monomeric Aβ [8] = assay: SPR of HSA interaction with monomeric Aβ (isoform not given); assay type: binding, human
[9] = tested on: brain Aβ deposition in AD mouse models; settings: dietary; cited from earlier work
Text: (§6) An alternative, less invasive approach to the lowering of the free Aβ level in the brain is a pharmacologically guided shift in the equilibrium between HSA and Aβ towards their complex. The latter possibility was recently confirmed by arachidonic/linoleic-aci ...

HSA–monomeric Aβ [10] = settings: cited from earlier work
Text: as §6

[11] = target: T1, HSA–monomeric Aβ42 (recombinant human Aβ42); design: method as in PMID 30685090; settings: cited from earlier work
[12] = target: T2, HSA–monomeric Aβ40 (recombinant human Aβ40); design: method as in PMID 30685090; settings: cited from earlier work
HSA [13] = settings: cited from earlier work
[14] = tested on: HSA-induced suppression of Aβ fibrillation; design: method as in 2 sources, ref 5 = [5]; PMID 10347147; doi:10.1074/jbc.274.23.15990; 5. Bohrmann B. Tjernberg L. Kuner P. Poli S. Levet-Trafit B. Naslund J. Richards G. Huber W. Dobeli H. Nordstedt C. Endogenous proteins controlling amyloid beta-peptide polymerization. Possible implic ||| ref 14 = [14]; PMID 29409811; doi:10.1016/j.jmb.2018.01.008; 14. Bode D.C. Stanyon H.F. Hirani T. Baker M.D. Nield J. Viles J.H. Serum albumin’s protective inhibition of amyloid-β fiber formation is suppressed by cholesterol, fatty acids and warfarin J. Mol. Bi; settings: cited from earlier work
[15] = 1 mM SRO, main cause of KD decrease

SMILES | Kd ([2]; 10 µM HSA ligand, pH 7.4) | Kd ([2]; 1 mM HSA ligand, pH 7.4) | ka (effective, HSA–Aβ42) ([2]; 10 µM HSA ligand, pH 7.4) | ka (effective, HSA–Aβ42) ([2]; 100 µM HSA ligand, pH 7.4) | ka (effective, HSA–Aβ42) ([2]; 1 mM HSA ligand, pH 7.4) | kd (effective, HSA–Aβ42) ([2]; 10 µM HSA ligand, pH 7.4) | kd (effective, HSA–Aβ42) ([2]; 100 µM HSA ligand, pH 7.4) | Kd ([3]; 10 µM HSA ligand, pH 7.4) | Kd ([3]; 1 mM HSA ligand, pH 7.4) | ka (effective, HSA–Aβ40) ([3]; 10 µM HSA ligand, pH 7.4) | ka (effective, HSA–Aβ40) ([3]; 100 µM HSA ligand, pH 7.4) | ka (effective, HSA–Aβ40) ([3]; 1 mM HSA ligand, pH 7.4) | kd (effective, HSA–Aβ40) ([3]; 10 µM HSA ligand, pH 7.4) | kd (effective, HSA–Aβ40) ([3]; 100 µM HSA ligand, pH 7.4) | kd (effective, HSA–Aβ40) ([3]; 1 mM HSA ligand, pH 7.4) | effect on quaternary structure of HSA (HSA [5]) | effect on HSA's affinity to monomeric Aβ / activation of HSA–Aβ interaction (HSA–monomeric Aβ [8]; general statement, SPR) | effect on HSA affinity to Aβ (HSA–monomeric Aβ [10]) | fold decrease in KD of HSA–monomeric Aβ42 [11] | fold decrease in KD of HSA–monomeric Aβ40 [12] | also measured
NCCc1c[nH]c2ccc(O)cc12 [SRO, 5-hydroxytryptamine] | 0.04 ± 0.02 µM | 0.007 ± 0.0015 µM | 0.6 ± 0.4 × 10^−3, M^−1s^−1 | 0.9 ± 0.2 × 10^−3, M^−1s^−1 | 1.2 ± 0.2 × 10^−3, M^−1s^−1 | 0.20 ± 0.14 × 10^4, s^−1 | 0.08 ± 0.02 × 10^4, s^−1 | 0.04 ± 0.02 µM | 0.009 ± 0.005 µM | 0.7 ± 0.2 × 10^−3, M^−1s^−1 | 1.5 ± 1.2 × 10^−3, M^−1s^−1 | 1.0 ± 0.5 × 10^−3, M^−1s^−1 | 0.26 ± 0.03 × 10^4, s^−1 | 0.19 ± 0.12 × 10^4, s^−1 | 0.09 ± 0.05 × 10^4, s^−1 | more distinct changes in the quaternary structure of HSA, relative to the TRP-induced effects; also recorded: more marked changes in the quaternary structure of HSA | the most potent activator of HSA–Aβ interaction reported to date |  |  |  | Kd (HSA [1]): 1.6 µM; factor of decrease in apparent KD / increase in affinity of HSA–Aβ42 ([2]; 1 mM SRO vs no ligand, pH 7.4): 17 factor; effect on dissociation of HSA–Aβ42 complex [2, 15]: slowdown of the dissociation process; Kd ([2]; 100 µM HSA ligand, pH 7.4): 0.009 ± 0.004 µM; kd (effective, HSA–Aβ42) ([2]; 1 mM HSA ligand, pH 7.4): 0.086 ± 0.009 × 10^4, s^−1; factor of decrease in apparent KD / increase in affinity of HSA–Aβ40 ([3]; 1 mM SRO vs no ligand, pH 7.4): 7 factor; effect on dissociation of HSA–Aβ40 complex [3, 15]: slowdown of the dissociation process; Kd ([3]; 100 µM HSA ligand, pH 7.4): 0.015 ± 0.013 µM; accumulation of multimeric HSA forms (DLS), compared with TRP (HSA [4]): more prominent accumulation of its multimeric forms; inhibition of Aβ42 fibrillation (Aβ42; 50–100 µM SRO): efficient inhibition of Aβ42 fibrillation; also recorded: potent inhibition of Aβ42 fibrillation; fold increase in content of HSA high-molecular-weight forms (at the expense of the monomer) (HSA [5]; 1 mM SRO, 0.02% glutaraldehyde, 1 h, pH 7.4): approximately 2 fold; SRO concentration after diffusion into the extracellular compartment ([6]; may reach): ≤ 55 nM; SRO concentration in the synaptic cleft ([6]; may reach): ≤ 6 mM; SRO concentration in plasma [6]: 0.28 to 1.7 µM; Aβ level in interstitial brain fluid [7]: decrease in the Aβ level in interstitial brain fluid; effect on HSA's affinity to Aβ (HSA–monomeric Aβ [8]; 10 µM SRO, SPR 25 °C): absence of a marked influence; fold decrease in KD of HSA–Aβ (HSA–monomeric Aβ [8]; up to, vs no ligand): ≤ 17 fold
CCCCC/C=C\C/C=C\CCCCCCCC(=O)O [linoleic acid] |  |  |  |  |  |  |  |  |  |  |  |  |  |  |  |  |  | enhancement of HSA affinity to Aβ | 3 fold | 3 fold | effect on brain Aβ deposition [9]: reduces brain Aβ deposition
N[C@@H](Cc1c[nH]c2ccccc12)C(=O)O [TRP, L-tryptophan] | 0.06 ± 0.04 µM | 0.06 ± 0.03 µM | 0.8 ± 0.4 × 10^−3, M^−1s^−1 | 0.5 ± 0.3 × 10^−3, M^−1s^−1 | 0.29 ± 0.07 × 10^−3, M^−1s^−1 | 0.4 ± 0.2 × 10^4, s^−1 | 0.7 ± 0.6 × 10^4, s^−1 | 0.08 ± 0.04 µM | 0.07 ± 0.04 µM | 0.7 ± 0.2 × 10^−3, M^−1s^−1 | 0.47 ± 0.15 × 10^−3, M^−1s^−1 | 0.6 ± 0.2 × 10^−3, M^−1s^−1 | 0.49 ± 0.12 × 10^4, s^−1 | 0.53 ± 0.17 × 10^4, s^−1 | 0.4 ± 0.2 × 10^4, s^−1 | did not affect the quaternary structure of HSA | does not affect HSA’s affinity to monomeric Aβ; also recorded: did not affect HSA’s effective affinity for Aβ; also recorded: inactive |  |  |  | effect on kinetics of HSA–Aβ42 interaction ([2]; 1 mM TRP): slowdown of the association and dissociation processes; effect on HSA's apparent affinity to Aβ42 ([2]; 1 mM ligand): did not affect HSA’s apparent affinity; effect on HSA's apparent affinity to Aβ40 ([3]; 1 mM ligand): did not affect HSA’s apparent affinity; inhibition of Aβ42 fibrillation compared with SRO (Aβ42): markedly less effective; also recorded: much less efficient inhibition of Aβ42 fibrillation; equilibrium association constant of TRP with HSA (HSA [13]): 27000 M⁻¹; effect on kinetics of HSA–Aβ interaction (HSA–monomeric Aβ [8]; general statement, SPR): slowdown of the association and dissociation processes; also recorded: slowed their association and dissociation
CC(=O)CC(c1ccccc1)c1c(O)c2ccccc2oc1=O (stereo not drawn) [warfarin] |  |  |  |  |  |  |  |  |  |  |  |  |  |  |  |  |  |  |  |  | effect on HSA-induced suppression of Aβ fibrillation [14]: prevent HSA-induced suppression of Aβ fibrillation
CCCCC/C=C\C/C=C\C/C=C\C/C=C\CCCC(=O)O [arachidonic acid] |  |  |  |  |  |  |  |  |  |  |  |  |  |  |  |  |  | enhancement of HSA affinity to Aβ | 3 fold | 3 fold | 
CC(C)CCC[C@@H](C)[C@H]1CC[C@H]2[C@@H]3CC=C4C[C@@H](O)CC[C@]4(C)[C@H]3CC[C@]12C [cholesterol] |  |  |  |  |  |  |  |  |  |  |  |  |  |  |  |  |  |  |  |  | effect on HSA-induced suppression of Aβ fibrillation [14]: prevent HSA-induced suppression of Aβ fibrillation
